One data set deals with β1AR (Meleagris gallopavo, UniProt P07700). The protocol: For the thermostability assay for the ligand-free receptor, 1–2.5 mg of E. coli-expressed membrane protein was solubilised for 30 min on ice with 1% DDM and insoluble material was removed by centrifugation (5 min, 20,000 g). Samples were then adjusted to give the desired concentration of NaCl or choline chloride. Thermostability was measured by incubating the sample at the specified temperature for 30 min; reactions were placed on ice, and ^3H-DHA was added (50 nM final concentration) and equilibrated (2 h, 4°C). Receptor-bound and free radioligand were separated by spin gel filtration assays as described previously. Nonspecific binding was determined in the presence of 1 mM alprenolol. Radioactivity was counted on a MicroBeta TriLux scintillation counter (Perkin Elmer), and data were analyzed by nonlinear regression using Prism software (GraphPad).
Sequence of β1AR (P07700 whole entry): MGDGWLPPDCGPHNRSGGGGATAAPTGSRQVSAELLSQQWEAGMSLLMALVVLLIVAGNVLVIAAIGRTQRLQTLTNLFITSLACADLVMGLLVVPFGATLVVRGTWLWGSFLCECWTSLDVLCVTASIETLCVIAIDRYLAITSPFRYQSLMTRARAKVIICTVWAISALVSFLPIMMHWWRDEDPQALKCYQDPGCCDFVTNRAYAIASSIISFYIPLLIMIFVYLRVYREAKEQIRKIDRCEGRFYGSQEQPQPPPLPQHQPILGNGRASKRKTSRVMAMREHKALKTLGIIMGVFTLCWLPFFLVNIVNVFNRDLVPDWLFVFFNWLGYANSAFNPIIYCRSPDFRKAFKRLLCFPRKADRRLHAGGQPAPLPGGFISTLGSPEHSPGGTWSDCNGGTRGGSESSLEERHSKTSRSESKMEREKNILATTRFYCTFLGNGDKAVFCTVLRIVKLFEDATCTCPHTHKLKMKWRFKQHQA
Figure 4 Thermostability of β1AR mutants.

For data set [1], the target named is neurotensin receptor (NTSR1). Also on record: method as in PMID 23051748. Conditions: read-out: EC50 for the allosteric effect of Na+ on NTSR1; cited from earlier work.
Another data set relates to A2AR. Conditions: cited from earlier work.

The values below come from article PMC3963952, “The 2.1 Å Resolution Structure of Cyanopindolol-Bound β1-Adrenoceptor Identifies an Intramembrane Na^+ Ion that Stabilises the Ligand-Free Receptor” (PLoS ONE, 2014).

On to `C[N+](C)(C)CCO.[Cl-]` [choline chloride], for which, on β1AR (in 150 mM of the named salt, heated 30 min, ±SEM), the “apparent Tm of dodecylmaltoside-solubilised ligand-free β1AR” value worked out at 19.1±0.6 °C.

Consider `[Cl-].[Na+]` [Na^+], for which the EC50 in data set [1] was 43 mM; with A2AR (also calculated from data in ref 21, read-out: EC50 for the allosteric effect of Na+ on A2AR) it was 40 to 48 mM. Besides, on A2AR (no reference given, read-out: KD of Na+ binding to A2AR), the Kd is 40 to 50 mM. Further, on β1AR (ligand-free β1AR, 150 mM NaCl versus 150 mM choline chloride), the “decrease of β1AR thermostability in the absence of Na+” value was 7.5 °C.

Usually EC50 stands for the concentration at which the effect is half-maximal. As usually defined, the Kd is a measure of binding affinity in units of concentration.
